The supplement of paper PMC10307832

Columns and labels:
Experiment in all cases: relative viability (nuclei count vs DMSO), 5 days (fraction); higher = more cells survive
[1] = tested on: PC-3 [JPC-3]
How it was run: (§1)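 Five library-drug doses in √10 steps were combined with a fixed anchor-drug dose, or a single drug was given alone, by pin tool to lung cancer cell lines in 1536-well plates the day after seeding. Nuclei were stained and counted after 5 days. Relative viability is the nuclei count in treated wells over that in vehicle wells, taken as the median of duplicate plates.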

[2] = tested on: SW 900
How it was run: as §1

[3] = tested on: H3255
How it was run: as §1

[4] = tested on: NCI-H1666
How it was run: as §1

[5] = tested on: LK-2
How it was run: as §1

[6] = tested on: NCI-H23
How it was run: as §1

[7] = tested on: SK-MES-1
How it was run: as §1

[8] = tested on: HCC-366
How it was run: as §1

[9] = tested on: COR-L 105
How it was run: as §1

[10] = tested on: NCI-H1755
How it was run: as §1

[11] = tested on: A-427
How it was run: as §1

[12] = tested on: LOU-NH91
How it was run: as §1

[13] = tested on: NCI-H2170
How it was run: as §1

[14] = tested on: NCI-H1975
How it was run: as §1

[15] = tested on: ChaGo-K-1
How it was run: as §1

[16] = tested on: EKVX
How it was run: as §1

[17] = tested on: NCI-H441
How it was run: as §1

[18] = tested on: NCI-H520
How it was run: as §1

[19] = tested on: NCI-H1734
How it was run: as §1

[20] = tested on: EMC-BAC-2
How it was run: as §1

Question: For `COc1nc(C)cnc1NS(=O)(=O)c1cccnc1-c1ccc(-c2nnco2)cc1` [Zibotentan] + CC(=O)c1c(C)c2cnc(Nc3ccc(N4CCNCC4)cn3)nc2n(C2CCCC2)c1=O [Palbociclib] (partner 0.5 µM), which relative viability ([1]; first compound 0.08 µM) is on record?
Answer: 0.556

Question: And the relative viability ([1]; first compound 0.253 µM)?
Answer: 0.548

Question: What about the relative viability ([1]; first compound 0.8 µM) of the same molecule?
Answer: 0.537

Question: And the relative viability ([1]; first compound 2.53 µM)?
Answer: 0.581

Question: What about the relative viability ([2]; first compound 0.08 µM) of the same molecule?
Answer: 0.541

Question: What about the relative viability ([2]; first compound 0.253 µM) of the same molecule?
Answer: 0.565

Question: And the relative viability ([2]; first compound 0.8 µM)?
Answer: 0.487

Question: And the relative viability ([2]; first compound 2.53 µM)?
Answer: 0.564

Question: And the relative viability ([3]; first compound 0.08 µM)?
Answer: 0.317

Question: And the relative viability ([3]; first compound 0.253 µM)?
Answer: 0.318

Question: What about the relative viability ([3]; first compound 0.8 µM) of the same molecule?
Answer: 0.355

Question: What about the relative viability ([3]; first compound 2.53 µM) of the same molecule?
Answer: 0.283

Question: What about the relative viability ([4]; first compound 0.08 µM) of the same molecule?
Answer: 0.682

Question: And the relative viability ([4]; first compound 0.253 µM)?
Answer: 0.594

Question: And the relative viability ([4]; first compound 0.8 µM)?
Answer: 0.694

Question: And the relative viability ([4]; first compound 2.53 µM)?
Answer: 0.692

Question: And the relative viability ([5]; first compound 0.08 µM)?
Answer: 0.609

Question: And the relative viability ([5]; first compound 0.253 µM)?
Answer: 0.544

Question: And the relative viability ([5]; first compound 0.8 µM)?
Answer: 0.62

Question: And the relative viability ([5]; first compound 2.53 µM)?
Answer: 0.609

Question: And the relative viability ([6]; first compound 0.08 µM)?
Answer: 0.586

Question: And the relative viability ([6]; first compound 0.253 µM)?
Answer: 0.496

Question: And the relative viability ([6]; first compound 0.8 µM)?
Answer: 0.53

Question: What about the relative viability ([6]; first compound 2.53 µM) of the same molecule?
Answer: 0.527

Question: What about the relative viability ([7]; first compound 0.08 µM) of the same molecule?
Answer: 0.309

Question: What about the relative viability ([7]; first compound 0.253 µM) of the same molecule?
Answer: 0.284

Question: And the relative viability ([7]; first compound 0.8 µM)?
Answer: 0.35

Question: And the relative viability ([7]; first compound 2.53 µM)?
Answer: 0.362

Question: What about the relative viability ([8]; first compound 0.08 µM) of the same molecule?
Answer: 0.387

Question: And the relative viability ([8]; first compound 0.253 µM)?
Answer: 0.285

Question: And the relative viability ([8]; first compound 0.8 µM)?
Answer: 0.383

Question: And the relative viability ([8]; first compound 2.53 µM)?
Answer: 0.4

Question: What about the relative viability ([9]; first compound 0.08 µM) of the same molecule?
Answer: 0.381

Question: And the relative viability ([9]; first compound 0.253 µM)?
Answer: 0.375

Question: And the relative viability ([9]; first compound 0.8 µM)?
Answer: 0.373

Question: And the relative viability ([9]; first compound 2.53 µM)?
Answer: 0.45

Question: What about the relative viability ([10]; first compound 0.08 µM) of the same molecule?
Answer: 0.421

Question: And the relative viability ([10]; first compound 0.253 µM)?
Answer: 0.497

Question: And the relative viability ([10]; first compound 0.8 µM)?
Answer: 0.447

Question: And the relative viability ([10]; first compound 2.53 µM)?
Answer: 0.453

Question: What about the relative viability ([11]; first compound 0.08 µM) of the same molecule?
Answer: 0.514

Question: And the relative viability ([11]; first compound 0.253 µM)?
Answer: 0.515

Question: What about the relative viability ([11]; first compound 0.8 µM) of the same molecule?
Answer: 0.519

Question: And the relative viability ([11]; first compound 2.53 µM)?
Answer: 0.559

Question: And the relative viability ([12]; first compound 0.08 µM)?
Answer: 0.483

Question: And the relative viability ([12]; first compound 0.253 µM)?
Answer: 0.544

Question: And the relative viability ([12]; first compound 0.8 µM)?
Answer: 0.504

Question: What about the relative viability ([12]; first compound 2.53 µM) of the same molecule?
Answer: 0.476

Question: And the relative viability ([13]; first compound 0.08 µM)?
Answer: 0.389

Question: And the relative viability ([13]; first compound 0.253 µM)?
Answer: 0.369

Question: What about the relative viability ([13]; first compound 0.8 µM) of the same molecule?
Answer: 0.403

Question: What about the relative viability ([13]; first compound 2.53 µM) of the same molecule?
Answer: 0.371

Question: What about the relative viability ([14]; first compound 0.08 µM) of the same molecule?
Answer: 0.517

Question: And the relative viability ([14]; first compound 0.253 µM)?
Answer: 0.526

Question: And the relative viability ([14]; first compound 0.8 µM)?
Answer: 0.553

Question: What about the relative viability ([14]; first compound 2.53 µM) of the same molecule?
Answer: 0.596

Question: And the relative viability ([15]; first compound 0.08 µM)?
Answer: 0.965

Question: What about the relative viability ([15]; first compound 0.253 µM) of the same molecule?
Answer: 0.945

Question: And the relative viability ([15]; first compound 0.8 µM)?
Answer: 0.947

Question: What about the relative viability ([15]; first compound 2.53 µM) of the same molecule?
Answer: 0.972

Question: And the relative viability ([16]; first compound 0.08 µM)?
Answer: 0.276

Question: What about the relative viability ([16]; first compound 0.253 µM) of the same molecule?
Answer: 0.354

Question: And the relative viability ([16]; first compound 0.8 µM)?
Answer: 0.37

Question: And the relative viability ([16]; first compound 2.53 µM)?
Answer: 0.5

Question: What about the relative viability ([17]; first compound 0.08 µM) of the same molecule?
Answer: 0.237

Question: What about the relative viability ([17]; first compound 0.253 µM) of the same molecule?
Answer: 0.197

Question: What about the relative viability ([17]; first compound 0.8 µM) of the same molecule?
Answer: 0.254

Question: And the relative viability ([17]; first compound 2.53 µM)?
Answer: 0.24

Question: And the relative viability ([18]; first compound 0.08 µM)?
Answer: 0.219

Question: What about the relative viability ([18]; first compound 0.253 µM) of the same molecule?
Answer: 0.208

Question: What about the relative viability ([18]; first compound 0.8 µM) of the same molecule?
Answer: 0.208

Question: And the relative viability ([18]; first compound 2.53 µM)?
Answer: 0.248

Question: And the relative viability ([19]; first compound 0.08 µM)?
Answer: 0.337

Question: What about the relative viability ([19]; first compound 0.253 µM) of the same molecule?
Answer: 0.32

Question: What about the relative viability ([19]; first compound 0.8 µM) of the same molecule?
Answer: 0.374

Question: And the relative viability ([19]; first compound 2.53 µM)?
Answer: 0.407

Question: What about the relative viability ([20]; first compound 0.08 µM) of the same molecule?
Answer: 0.532

Question: And the relative viability ([20]; first compound 0.8 µM)?
Answer: 0.546

Question: And the relative viability ([20]; first compound 2.53 µM)?
Answer: 0.503
